Results taken from patent publication US5891877A, “Pharmaceutical compounds” (Xenova Limited, priority 1996, dated 1999).

What was measured:
PAI-1 = PAI-1 (Homo sapiens, UniProt P05121); assay: PAI-1 inhibition in the S2251 chromogenic substrate assay (PAI functional assay); format: biochemical; conditions: 20 μM; Table 1, second part; read-out: INHIBITION OF PAI-1 (degree of inhibition)
Outline: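 Compound preincubated with PAI-1, then added to a tPA/plasminogen system; residual tPA activity converts plasminogen to plasmin.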

[1] = test system: cytotoxicity of vincristine; conditions: J. Antibiotics vol XLIII No. 8, 1018-1020; cited from earlier work

Sequence of PAI-1 (P05121 24-402): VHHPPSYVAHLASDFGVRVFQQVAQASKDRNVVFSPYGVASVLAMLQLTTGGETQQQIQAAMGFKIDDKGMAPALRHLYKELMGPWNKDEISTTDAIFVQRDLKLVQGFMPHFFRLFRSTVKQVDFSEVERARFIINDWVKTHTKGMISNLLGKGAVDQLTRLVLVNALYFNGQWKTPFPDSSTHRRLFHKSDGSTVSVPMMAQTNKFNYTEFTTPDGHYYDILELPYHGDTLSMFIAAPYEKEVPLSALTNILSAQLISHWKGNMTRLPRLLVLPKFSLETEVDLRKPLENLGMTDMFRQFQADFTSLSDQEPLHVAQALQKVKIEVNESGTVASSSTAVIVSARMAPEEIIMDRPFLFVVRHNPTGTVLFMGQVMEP

Row | Compound | inhibition at 20 µM (PAI-1) [%] | utility as potentiators of the cytotoxicity of vincristine [1]
1 | COc1cc2c(cc1OC)CN(CCc1ccc(NC(=O)c3ccc(/C=c4\[nH]c(=O)/c(=C/c5ccc([N+](=O)[O-])cc5)[nH]c4=O)cc3)cc1)CC2 [Compound 5402] | 37 | 
2 | Cn1c(=O)/c(=C/c2ccccc2)[nH]c(=O)/c1=C/c1ccccc1 [piperafizine A] |  | potentiators of the cytotoxicity of vincristine
3 | O=c1[nH]/c(=C\c2ccccc2)c(=O)[nH]/c1=C\c1ccccc1 [piperafizine B] |  | potentiators of the cytotoxicity of vincristine
